In article PMC7274078, “Brain Endothelial Cells Regulate Glucagon-Like Peptide 1 Entry Into the Brain via a Receptor-Mediated Process” (Frontiers in Physiology, 2020):

How the values were obtained:
[1] = Microvascular perfusion in hippocampus and skeletal muscle (contrast-enhanced ultrasound), with blood glucose and MAP; assay type: in vivo; conditions: rat
Method: After a 30–45 min baseline period to ensure hemodynamic stability and a stable level of anesthesia, baseline microvascular blood volume (MBV) and microvascular flow velocity (MFV), in the hippocampus and skeletal muscle were determined using contrast-enhanced ultrasound (CEU), as described previously ([Chai et al., 2010]; [Fu et al., 2013], [2017]). In brief, microbubbles (Definity; Lantheus Medical Imaging) were diluted with normal saline (1:10 vol:vol) and infused intravenously at a rate of 0.8 mL/h. Once the systemic microbubble concentrations reached steady state (∼6 min), high-power pulse-inversion ultrasound (HDI-5000; Philips Ultrasound) was used to image the microbubble signals in the hippocampus and the proximal adductor muscle group (adductor magnus and semimembranosus). Intermittent imaging was performed at pulsing intervals ranging from 0.5 to 10 s. At least three images were acquired at each pulsing interval, and the images obtained at 0.5 s were used as background. Pulsing interval vs. background-subtracted video intensity was fitted to the function y = A (1 − e^−βt, with y being video intensity at pulsing interval t. A as the plateau video intensity measures MBV and β represents the rate of microvascular filling (i.e., MFV). Microvascular blood flow (MBF) was calculated by multiplying MBV and MFV. All CEU images were analyzed using the QLAB software (Philips Medical Systems, Andover, MA, United States).
After the baseline hippocampal and muscle microvascular parameters were obtained, rats then received a continuous intravenous infusion of either saline or GLP-1 (30 pmol/kg/min) for 120 min. Hippocampal microvascular parameters (MBV, MFV, and MBF) were again determined every 30 min and muscle microvascular parameters at 120 min using CEU. Throughout the study, mean arterial blood pressure (MAP) was monitored via a sensor connected to the carotid catheter (Harvard Apparatus, Holliston, MA, United States, and AD Instruments, Inc., Colorado Springs, CO, United States). Inactin was infused at a variable rate to maintain steady levels of anesthesia and blood pressure throughout the study. Carotid arterial blood glucose concentrations were determined every 30 min using a Contour Next glucometer (BAYER). At the end of each study the rat was euthanized by an overdose of inactin.
FIGURE 8 GLP-1 infusion increases muscle but not […] microvascular perfusion. Each rat received a systemic infusion of saline or GLP-1 at 30 pmol/kg/min for 120 min and MBV, MFV and MBF were determined using contrast-enhanced ultrasound in both […] (A,B,C) and muscle (D,E,F) (n = 6, *p < 0.05, vs. control, Student’s t test).

[2] = test system: DPP4; conditions: plasma, degradation by DPP4; no reference given; cited from earlier work
From the text: GLP-1 receptors are expressed in multiple brain areas in rodents, primates, and humans and they are involved in learning, neuroprotection and regulation of appetite and satiety ([Wei and Mojsov, 1995]; [During et al., 2003]; [Richards et al., 2014]). Global knockout of the GLP-1 receptor in mice impairs synaptic plasticity and memory formation ([Abbas et al., 2009]). […] Indeed, pre-treatment of animals w ...

[3] = GLP-1 concentrations in plasma and CSF (total GLP-1 ELISA); assay type: in vivo; conditions: rat, systemic infusion 30 pmol/kg/min for 10 min, n = 4
Method: (§1) Each rat received a systemic infusion of either saline or GLP-1 (Abcam, Cambridge, United Kingdom) (30 pmol/kg/min) via the jugular vein catheter for 10 min. Plasma samples were then collected and rats sacrificed via anesthetic overdose. Cerebral spinal fluid (CSF) and various brain regions (cerebellum, cortex, hippocampus, hypothalamus, and brain stem) were collected for further assays. Cerebral microvessels were isolated as described ([Austin et al., 2010]). Briefly, brain tissue was disrupted with a razor blade followed by passing through an 18G needle. […]
(§2) All plasma and CSF samples collected during the study were frozen immediately and stored at −80°C until further analysis of GLP-1 concentration using a total GLP-1 ELISA kit (Merck Millipore, Billerica, MA, United States) ([Knezovic et al., 2018]). To measure PKA activity in brain tissue, cerebral microvessels, or cultured cells, samples were homogenized and lysed in PKA lysis buffer and activity determined using a Pep Tag® non-radioactive protein kinase assay kit (Promega, Madison, WI, United States) ([Christian et al., 2011]). […]
(§3) Each rat received a systemic infusion of either saline or GLP-1 (30 pmol/kg/min) for 10 min, GLP-1 concentrations in CSF and plasma were determined and cerebral microvessels were isolated. […] (D) Quantitative analysis of PKA activity (n = 6, *p < 0.05, Student’s t test).

[4] = test system: protein kinase A (PKA); assay: PKA activity in brain regions and cerebral microvessels after GLP-1 infusion; assay type: in vivo, rat
Method: as §1, with “needle. Vessel fragments were harvested using dextran-gradient centrifugation, then collected on a 20 μm pore filter, washed to remove cell debris, and reconstituted in buffer. This was followed by passing through a 100 μm pore size filter. Brain vessels that can pass through the 100 μm filter were considered as cerebral microvessel and used for protein kinase A (PKA) activity assay.” for “needle.”
as §2
FIGURE 2 GLP-1 infusion increases PKA activity in various brain regions in both normal and vagotomized rats. […] PKA activities in various brain regions were determined in normal rats (A,B) and vagotomized rats (D,E). […] (B,E), Quantitative analysis (B, n = 7; *p < 0.05 vs. saline infusion, Student’s t test) (E, n = 6; *p < 0.05 vs. saline infusion, Student’s t test).
as §3

[5] = 30 pmol/kg/min i.v. for 120 min, contrast-enhanced ultrasound, n = 6
[6] = 30 pmol/kg/min i.v. for 120 min, n = 6
[7] = 30 pmol/kg/min i.v., at 120 min, contrast-enhanced ultrasound, n = 6, p < 0.05

PKA activity in brain microvessels ([4]; isolated cerebral microvessels, rat, GLP-1 30 pmol/kg/min for 10 min, n = 6, p < 0.05): acutely increased | PKA activities in all brain regions ([4]; normal rats, GLP-1 30 pmol/kg/min infusion for 10 min vs saline, n = 7, p < 0.05): significantly increased | PKA activity in various brain regions ([4]; sham-operated and sub-diaphragmatic vagotomized rats, GLP-1 30 pmol/kg/min for 10 min, n = 6): rapid and robust increase
Substance: Glucagon-like peptide 1 [GLP-1]
hippocampal MBF [1, 5]: did not alter | hippocampal MBV [1, 5]: did not alter | hippocampal MFV [1, 5]: did not alter | Blood glucose during the study [1, 6]: remained stable | MAP during the study [1, 6]: remained stable | MFV in muscle ([1]; 30 pmol/kg/min i.v., at 120 min, contrast-enhanced ultrasound, n = 6): without affecting | MBF in muscle [1, 7]: markedly increase | MBV in muscle [1, 7]: markedly increase | half-life [2]: ~2 min | levels of GLP-1 in CSF [3]: remained undetectable | plasma GLP-1 concentrations [3]: markedly increased
